Results as given in patent US5411965A, “Use of delta opioid receptor antagonists to treat cocaine abuse” (Arizona Board of Regents, priority 1993, dated 1995).
Entries after “also recorded” stand apart in the source; their conditions may differ.

Assays:
[1] = assay type: in vivo, rats
Source text: When rats are fixed with chronically indwelling bipolar electrodes for electrical stimulation of the medial forebrain bundle, they will press levers for brief durations of stimulation. The higher the intensity of stimulation, the greater the pressing. […] These relationships plus extant theory provide the rationale for using pressing for brain stimulation as a means of assessing the reinforcing effects of drugs and assessing which drugs might affect another drug's reinforcing effects.
The particulars of the procedures used herein are briefly summarized. Further information is in Reid (cited above) and Reid et al. (Life Sciences, 52, PL67-71 (1993)). Rats were fixed with chronically indwelling bipolar electrodes. Using standard stereotaxic methods, which includes full anesthesia, the tips of the electrode were aimed to stimulate the medial forebrain bundle as it traverses the lateral hypothalamus. With the skull held in a stereotaxic instrument so that a plane between bregma and lamba was perpendicular to the shaft of the electrode, the following stereotaxic coordinates were used: 3.5 mm posterior to brema, 1.6 mm lateral to the midline, and 8.6 mm below the surface of the skull.
The apparatus of these tests was a Skinner box (24×30 ×38 cm) equipped with a lever (2.5×2 cm). Each box was fixed with electrical leads and a slip-ring apparatus that allowed the rat to be connected to the electrical stimulator for intracranial stimulation, but allowed the rat to move freely in the box.
Upon full recovery from surgery, rats were trained to press a lever in the Skinner box for electrial stimulation of the brain. The electrical stimulation was 60 Hz sine waves of 0.3 sec. The maximum intensity used was of 50 microAmps. Each lever press delivered one 0.3-sec of brain stimulation.
Just after rats learned to press the lever, the intensity of the brain stimulation was varied. Three intensities were chosen. The lowest intensity was one that was barely sufficient to sustain lever pressing. The highest intensity sustained high rates of pressing, but not the highest rates that a rat can achieve. The medium intensity was about midway between the lowest and the highest. Once a set of intensities were established for each rat, those intensities remained fixed throughout the balance of testing. […] Each rat was under a daily regimen. They were allowed to press for each of three intensities of brain stimulation for 10 minutes. […] They were allowed to press the lever under this daily regimen under level-pressing rates became stable. Then, drugs (or placebos) were administered.
The methods of Example 5 were nearly the same as those of Example 4. Rats were fixed, using standard procedures, with chronically indwelling electrodes for stimulation of the medial forebrain bundle. Subsequent to recovery from surgery, they were trained to press for brain stimulation. After each learned to press, they were put on a daily regimen. That daily regimen involved pressing for 5 min at a high intensity of brain stimulation, followed by 5-minute sessions with medium, low, low, medium and then high intensity. Intensities were set for each rat so that pressing rate for the low intensity was rather slow (the low intensity being near lower threshold for maintaining pressing), pressing for the high intensity was at a high rate, and pressing for the medium intensity was between the rate for low and high intensity. Pressing at each intensity was averaged for an index of rat's responsiveness at that intensity.

kappa opioid receptor = conditions: agonist ethylketazocine in GPI; antagonist 100 or 200 nM, 15 min; read-out: Ke, EK; cited from earlier work
mu opioid receptor = conditions: agonist morphine in GPI; antagonist 100 or 200 nM, 15 min; read-out: Ke; cited from earlier work
[2] = system: mouse vas deferens (MVD) and guinea pig ileum (GPI); experiment: Agonist activity in MVD and GPI preparations; assay type: cell-based; conditions: in words
Protocol: 1. Guinea Pig Ileal Longitudinal Muscle (GPI). Ilea from guinea pigs were taken approximately 10 cm from the ileocaecal junction, and a strip of longitudinal muscle with the myenteric plexus attached was prepared by method of Rang et al., Brit. J. Pharmacol., 22, 356 (1964), the disclosure of which is incorporated by reference herein. A 1 cm portion of this strip was then mounted between two platinum electrodes placed in a 10 ml organ bath and connected to an isometric transducer. Contractions were recorded on a polygraph. […] The organ bath was maintained at 36°-37° C. The longitudinal muscle strip was allowed to equilibrate with continuous stimulation for a minimum of 90 min.
(§1) 2. Mouse Vas Deferens (MVD). […] The organ bath was maintained at 37° C.

delta opioid receptor = delta opioid receptor (Mus musculus, UniProt P32300); experiment: Antagonism of DADLE in the mouse vas deferens (MVD) preparation; assay type: cell-based; conditions: in words
Chain of delta opioid receptor (P32300 whole entry): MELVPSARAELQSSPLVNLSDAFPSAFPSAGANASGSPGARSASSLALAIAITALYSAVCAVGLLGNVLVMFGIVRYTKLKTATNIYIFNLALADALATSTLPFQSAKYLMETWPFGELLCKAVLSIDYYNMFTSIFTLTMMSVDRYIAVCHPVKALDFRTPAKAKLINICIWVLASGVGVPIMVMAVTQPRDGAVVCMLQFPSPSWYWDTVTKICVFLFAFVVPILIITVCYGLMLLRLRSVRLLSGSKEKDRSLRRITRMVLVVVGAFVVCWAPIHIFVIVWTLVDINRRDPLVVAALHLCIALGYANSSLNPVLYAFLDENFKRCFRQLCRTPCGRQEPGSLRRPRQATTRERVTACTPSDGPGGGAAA
Protocol: Furthermore, the MVD responds selectively to delta opioids.
as §1

[3] = cited from earlier work

## CC(N)Cc1ccccc1 (centres unmarked) [Amphetamine, phenylisopropylamine, reference compound]
[1]; rat, in vivo
  pressing for brain stimulation, amphetamine alone: produced an increment in pressing; also recorded: produced increased pressing compared to pressing under the influence of placebo

## O=C1C(=Cc2ccccc2)C[C@@]2(O)[C@H]3Cc4ccc(O)c5c4[C@@]2(CCN3CC2CC2)[C@H]1O5 [BNTX, 7-benzylidenenaltrexone]
[1]; rat, in vivo
  pressing for brain stimulation, BNTX plus cocaine: reduced cocaine's (5 mg/kg) facilitation of pressing for rewarding brain stimulation in a fashion similar to the reduction observed for NTI; also recorded: extraordinarily effective in blocking cocaine's salient effects

## Cn1c2c(c3ccccc31)C[C@@]1(O)[C@H]3Cc4ccc(O)c5c4[C@@]1(CCN3CC1CC1)[C@H]2O5 [Compound 2]
Kappa opioid receptor
  Kb: 22.2 nM
Mu opioid receptor
  Kb: 12.5 nM

## Oc1ccc2c3c1O[C@H]1c4[nH]c5ccc(F)cc5c4C[C@@]4(O)[C@@H](C2)N(CC2CC2)CC[C@]314 [Compound 3]
Kappa opioid receptor
  Kb: 46.2 nM
Mu opioid receptor
  Kb: 61.7 nM

## COc1ccc2[nH]c3c(c2c1)C[C@@]1(O)[C@H]2Cc4ccc(O)c5c4[C@@]1(CCN2CC1CC1)[C@H]3O5 [Compound 4]
Kappa opioid receptor
  Kb: 12.6 nM
Mu opioid receptor
  Kb: 63 nM

## Cc1ccc2[nH]c3c(c2c1)C[C@@]1(O)[C@H]2Cc4ccc(O)c5c4[C@@]1(CCN2CC1CC1)[C@H]3O5 [Compound 5]
Kappa opioid receptor
  Kb: > 250 nM
Mu opioid receptor
  Kb: > 160 nM

## O=[N+]([O-])c1ccc2[nH]c3c(c2c1)C[C@@]1(O)[C@H]2Cc4ccc(O)c5c4[C@@]1(CCN2CC1CC1)[C@H]3O5 [Compound 6]
Kappa opioid receptor
  Kb: ≥ 200 nM
Mu opioid receptor
  Kb: 92 nM

## CN1CC[C@]23c4c5ccc(O)c4O[C@H]2c2[nH]c4ccccc4c2C[C@@]3(O)[C@H]1C5 [Compound 7]
[2]
  agonist activity: exhibited partial agonist activity
Delta opioid receptor
  antagonism of the effect of the delta agonist DADLE: inactive

## Oc1ccc2c3c1O[C@H]1c4oc5ccccc5c4C[C@@]4(O)[C@@H](C2)N(CC2CC2)CC[C@]314 [Compound 8, 17-(cyclopropylmethyl)-6,7-dehydro-3,14β-dihydroxy-4,5α-epoxy-6,7-2',3'-benzo[b]furanomorphinan]
Kappa opioid receptor
  Kb: 50.8 nM
Delta opioid receptor
  delta antagonist potency and selectivity: less potent and less selective than 1 as a delta antagonist, nevertheless retains substantial delta antagonist activity
Mu opioid receptor
  Kb: 30.8 nM

## Oc1ccc2[nH]c3c(c2c1)C[C@@]1(O)[C@H]2Cc4ccc(O)c5c4[C@@]1(CCN2CC1CC1)[C@H]3O5 [Compound 9]
Kappa opioid receptor
  Kb: 68.5 nM
Mu opioid receptor
  Kb: 27.2 nM

## Oc1ccc2c3c1O[C@H]1c4[nH]c5cccc(F)c5c4C[C@@]4(O)[C@@H](C2)N(CC2CC2)CC[C@]314 [Compound 10]
Kappa opioid receptor
  Kb: > 170 nM
Mu opioid receptor
  Kb: > 125 nM

## Oc1ccc2c3c1O[C@H]1c4[nH]c5c(F)cccc5c4C[C@@]4(O)[C@@H](C2)N(CC2CC2)CC[C@]314 [Compound 11]
Kappa opioid receptor
  Kb: > 330 nM
Mu opioid receptor
  Kb: 5.3 nM

## Cc1cccc2c3c([nH]c12)[C@@H]1Oc2c(O)ccc4c2[C@@]12CCN(CC1CC1)[C@H](C4)[C@]2(O)C3 [Compound 13]
Kappa opioid receptor
  Kb: > 330 nM
Mu opioid receptor
  Kb: 19.1 nM

## COc1cccc2c3c([nH]c12)[C@@H]1Oc2c(O)ccc4c2[C@@]12CCN(CC1CC1)[C@H](C4)[C@]2(O)C3 [Compound 14]
Mu opioid receptor
  Kb: 35 nM

## Oc1ccc2c3c1O[C@H]1c4nc5ccccc5nc4C[C@@]4(O)[C@@H](C2)N(CC2CC2)CC[C@]314 [Compound 16]
Kappa opioid receptor
  Kb: 13.4 nM
Delta opioid receptor
  delta antagonist potency and selectivity: A similar relationship was observed
Mu opioid receptor
  Kb: 6.1 nM

## Oc1ccc2c3c1O[C@H]1c4nc5ccccc5cc4C[C@@]4(O)[C@@H](C2)N(CC2CC2)CC[C@]314 [Compound 17]
Kappa opioid receptor
  Kb: 16.3 nM
Delta opioid receptor
  delta antagonist potency and selectivity: A similar relationship was observed
Mu opioid receptor
  Kb: 11.3 nM

## CNC(C)Cc1ccc2c(c1)OCO2 (centres unmarked) [MDMA, N-monomethyl-3,4-methylenedioxyphenylisopropylamine, reference compound]
[3]; drug alone, literature
  conditioned place preference: produces a conditioned place preference among rats
[1]; High intensity of intracranial stimulation, six rats
  mean presses at High intensity, MDMA plus Placebo: 922 presses per ten minutes
[1]; Low intensity of intracranial stimulation, six rats
  mean presses at Low intensity, MDMA plus Placebo: 288 presses per ten minutes
[1]; Medium intensity of intracranial stimulation, six rats
  mean presses at Medium intensity, MDMA plus Placebo: 563 presses per ten minutes
[1]; in words
  pressing for brain stimulation, MDMA alone: increased pressing
[1]; low intensity, factor
  average increase in pressing, MDMA: four times

## O=C1CC[C@@]2(O)[C@H]3Cc4ccc(O)c5c4[C@@]2(CCN3CC2CC2)[C@H]1O5 [naltrexone]
[3]; given alone, literature
  conditioned place aversion: condition place aversions
[3]; rat, in vivo
  effect on MDMA's conditioned place preference: attenuated but not blocked
  effect on cocaine's conditioned place preference: attenuate cocaine's reinforcing properties
